In ChEMBL document CHEMBL1122602, “2-Acetylpyridine thiosemicarbazones. 8. Derivatives of 1-acetylisoquinoline as potential antimalarial agents” (1984):

Assays:
Assay type in all cases: functional
Mus musculus [1] = experiment: Antimalarial activity was assessed against Plasmodium berghei in mice (Mus musculus) at 640 mg/kg dosage of the compound; Toxic
Mus musculus [2] = experiment: Antimalarial activity was assessed against Plasmodium berghei in mice (Mus musculus) at 160 mg/kg dosage of the compound; Toxic
Mus musculus [3] = experiment: Antimalarial activity was assessed against Plasmodium berghei in mice (Mus musculus) at 320 mg/kg dosage of the compound; Toxic
Mus musculus [4] = experiment: Antimalarial activity was assessed against Plasmodium berghei in mice (Mus musculus) at 640 mg/kg dosage of the compound: Toxic
Mus musculus [5] = experiment: Antimalarial activity was assessed against Plasmodium berghei in mice (Mus musculus). at 320 mg/kg dosage of the compound; Toxic

Compound | toxic deaths (Mus musculus [1]) [count] | toxic deaths (Mus musculus [2]) [count] | toxic deaths (Mus musculus [3]) [count] | toxic deaths (Mus musculus [4]) [count] | toxic deaths (Mus musculus [5]) [count]
C/C(=N\N=C(/S)N(C)C1CCCCC1)c1nccc2ccccc12 | 5 | 1 | – | – | –
C/C(=N\N=C(/S)N1CC(C)OC(C)C1)c1nccc2ccccc12 (stereo unspecified) | 2 | – | 1 | – | –
C/C(=N\N=C(/S)N1CCCCCC1)c1nccc2ccccc12 | 4 | – | – | – | –
C/C(=N\N=C(/S)N(C)C)c1nccc2ccccc12 | 5 | – | 5 | – | –
CC(N/N=C(\S)N1CCN(c2ccccn2)CC1)c1nccc2ccccc12 (stereo unspecified) | 1 | – | 2 | – | –
CC(N/N=C(\S)N(C)C)c1nccc2ccccc12 (stereo unspecified) | 5 | 1 | – | – | –
CC1CCN(/C(S)=N/NC(C)c2nccc3ccccc23)CC1 (stereo unspecified) | 5 | – | 5 | – | –
CC(N/N=C(\S)N1CCCCCC1)c1nccc2ccccc12 (stereo unspecified) | 2 | – | 3 | – | –
CC(N/N=C(\S)N(C)C1CCCCC1)c1nccc2ccccc12 (stereo unspecified) | 3 | 2 | 3 | – | –
CC(N/N=C(\S)N1CCCC1)c1nccc2ccccc12 (stereo unspecified) | 4 | – | 2 | – | –
C/C(=N\N=C(/S)N1CCC(C)CC1)c1nccc2ccccc12 | – | 1 | 5 | 5 | –
C/C(=N\N=C(/S)N1CCCC1)c1nccc2ccccc12 | 5 | – | – | – | –
CC1CN(/C(S)=N/NC(C)c2nccc3ccccc23)CC(C)O1 (stereo unspecified) | 1 | – | – | – | 1
